Reference: PubChem BioAssay (NCI)
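The compound was tested at five concentrations on cells cultured in 96-well plates, with a 48-hour exposure period. The concentration for full growth arrest is given as TGI.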

How the values were obtained:
Assay in all cases: inhibition of tumour cell growth, NCI panel, 48 h
[1] = tested on: RXF 393 renal
[2] = tested on: CAKI-1 renal
[3] = tested on: SF-539 CNS
[4] = tested on: U251 CNS
[5] = tested on: HCT-116 colon
[6] = tested on: NCI/ADR-RES ovarian
[7] = tested on: HOP-62 NSCLC
[8] = tested on: SK-MEL-5 melanoma
[9] = tested on: UACC-62 melanoma
[10] = tested on: PC-3 prostate
[11] = tested on: KM12 colon
[12] = tested on: MALME-3M melanoma
[13] = tested on: DU-145 prostate
[14] = tested on: SF-295 CNS
[15] = tested on: LOX IMVI melanoma
[16] = tested on: CCRF-CEM leukemia
[17] = tested on: ACHN renal
[18] = tested on: SW-620 colon
[19] = tested on: SF-268 CNS
[20] = tested on: OVCAR-4 ovarian
[21] = tested on: IGROV1 ovarian
[22] = tested on: A549 NSCLC
[23] = tested on: 786-0 renal
[24] = tested on: MDA-MB-435
[25] = tested on: MOLT-4 leukemia
[26] = tested on: MDA-N
[27] = tested on: OVCAR-3 ovarian
[28] = tested on: T-47D breast
[29] = tested on: SK-MEL-2 melanoma
[30] = tested on: COLO 205 colon
[31] = tested on: M14 melanoma
[32] = tested on: UACC-257 melanoma
[33] = tested on: EKVX NSCLC
[34] = tested on: SNB-19 CNS
[35] = tested on: K-562 leukemia
[36] = tested on: BT-549 breast
[37] = tested on: HOP-92 NSCLC
[38] = tested on: SK-OV-3 ovarian
[39] = tested on: MDA-MB-231 breast
[40] = tested on: OVCAR-5 ovarian
[41] = tested on: HL-60(TB) leukemia
[42] = tested on: NCI-H226 lung
[43] = tested on: OVCAR-8 ovarian
[44] = tested on: RPMI-8226 leukemia
[45] = tested on: SN12C renal
[46] = tested on: UO-31 renal
[47] = tested on: TK-10 renal
[48] = tested on: NCI-H23 lung
[49] = tested on: HT29 colon
[50] = tested on: HCT-15 colon
[51] = tested on: HS 578T breast
[52] = tested on: NCI-H460 lung
[53] = tested on: MCF7 breast
[54] = tested on: HCC-2998 colon

`CCN1C(=O)C(=C/C=C/c2ccc(OC)cc2)C(=O)N(CC)C1=S` was tested, and the TGI [1] was 39.8 µM, the TGI [2] was 47.2 µM and the TGI [3] was 40.4 µM. For the same compound, the TGI [4] was 36.6 µM, the TGI [5] was 31.8 µM and the TGI [6] was 37.4 µM. It also gave a TGI [7] of 36.1 µM, a TGI [8] of 71.7 µM and a TGI [9] of 31.7 µM. The TGI [10] was 37.3 µM, the TGI [11] was 40.5 µM and the TGI [12] was 28 µM. The TGI [13] was 34 µM, the TGI [14] was greater than 100 µM and the TGI [15] was 32.6 µM. The TGI [16] was 75.3 µM, the TGI [17] was 31.5 µM and the TGI [18] was 44 µM. The TGI [19] was 88.3 µM, the TGI [20] was greater than 100 µM and the TGI [21] was 35.7 µM. It also gave a TGI [22] greater than 100 µM, a TGI [23] of 32.6 µM and a TGI [24] of 43.6 µM. The TGI [25] was greater than 100 µM, the TGI [26] was 36.6 µM and the TGI [27] was 31.2 µM. The TGI [28] was greater than 100 µM, the TGI [29] was greater than 100 µM and the TGI [30] was 36 µM. The TGI [31] was 52.5 µM, the TGI [32] was 30.3 µM and the TGI [33] was 78.9 µM. The TGI [34] was greater than 100 µM, the TGI [35] was greater than 100 µM and the TGI [36] was 90.1 µM. For the same compound, the TGI [37] was 28.9 µM, the TGI [38] was 57.8 µM and the TGI [39] was 37.2 µM. The TGI [40] was greater than 100 µM, the TGI [41] was greater than 100 µM and the TGI [42] was greater than 100 µM. The TGI [43] was 44.7 µM, the TGI [44] was greater than 100 µM and the TGI [45] was 35.4 µM. It also gave a TGI [46] greater than 100 µM, a TGI [47] of 31.8 µM and a TGI [48] greater than 100 µM. It also gave a TGI [49] of 58.9 µM, a TGI [50] of 36.4 µM and a TGI [51] greater than 100 µM. The TGI [52] was greater than 100 µM, the TGI [53] was greater than 100 µM and the TGI [54] was greater than 100 µM.
